Some targets named below: KIT (human) (UniProt P10721); CSNK1E (human) (UniProt P49674); PDGFRB (human) (UniProt P09619); CSNK1G2 (human) (UniProt P78368); DDR1 (human) (UniProt Q08345); PRKX (human) (UniProt P51817); HIPK4 (human) (UniProt Q8NE63); MKNK2 (human) (UniProt Q9HBH9); CSF1R (human) (UniProt P07333); AKT1 (human) (UniProt P31749); SLK (human) (UniProt Q9H2G2); AKT3 (human) (UniProt Q9Y243).

A further test deals with RIPK2 (human) (UniProt O43353). Briefly: radiometric filter-binding kinase assay.
Another test deals with MAPK15 (human) (UniProt Q8TD08). Briefly: radiometric filter-binding kinase assay.
A further test concerns the target CLK2 (human) (UniProt P49760). The test is described as follows: radiometric filter-binding kinase assay.
The next test has as its target NUAK1 (human) (UniProt O60285). Briefly: radiometric filter-binding kinase assay.
In a further test the target is GCK (human) (UniProt Q12851). The test is described as follows: radiometric filter-binding kinase assay.
Another test concerns the target MAP3K7 (human) (UniProt O43318). The test is described as follows: radiometric filter-binding kinase assay.
The target in a further test is CSNK2A1 (human) (UniProt P68400). Briefly: radiometric filter-binding kinase assay.
In another test the target is GSK3B (human) (UniProt P49841). Briefly: radiometric filter-binding kinase assay.
In test [1] the target is IRAK1 (human) (UniProt P51617). Briefly: radiometric filter-binding kinase assay.
The next test has as its target MAPK8 (human) (UniProt P45983). Briefly: radiometric filter-binding kinase assay.
In test [2] the target is HIPK1 (human) (UniProt Q86Z02). The test is described as follows: radiometric filter-binding kinase assay.
The next test addresses JAK2 JH1 JH2 (human) (UniProt O60674). The test is described as follows: radiometric filter-binding kinase assay.
The subject of test [3] is PIK3CA (human), P42336 [Q546K]. Briefly: KINOMEscan competition binding.
Test [4] has as its system RET (human), P07949 [V804M]. Briefly: KINOMEscan competition binding.
The target of a further test is CDKL3 (human) (UniProt Q8IVW4). Briefly: KINOMEscan competition binding.
The target in a further test is PAK7 (human) (UniProt Q9P286). The test is described as follows: KINOMEscan competition binding.
The target in test [5] is IRAK1 (human) (UniProt P51617).
In test [6] the target is HIPK1 (human) (UniProt Q86Z02).
The target of a further test is MAPK9 (human) (UniProt P45984). The test is described as follows: radiometric filter-binding kinase assay.
The target of a further test is FLT1 (human) (UniProt P17948). The test is described as follows: radiometric filter-binding kinase assay.
The target of the next test is ERBB4 (human) (UniProt Q15303). Briefly: radiometric filter-binding kinase assay.
In the next test the target is MAP3K9 (human) (UniProt P80192). The test is described as follows: radiometric filter-binding kinase assay.
The target in a further test is EPHB4 (human) (UniProt P54760). Briefly: radiometric filter-binding kinase assay.
A further test addresses MAPK10 (human) (UniProt P53779). Briefly: radiometric filter-binding kinase assay.
For the next test, the target named is EPHB2 (human) (UniProt P29323). Briefly: radiometric filter-binding kinase assay.
The target of a further test is YES1 (human) (UniProt P07947). Briefly: radiometric filter-binding kinase assay.
In test [7] the target is AKT2 (human), P31751 [S474D]. The test is described as follows: radiometric filter-binding kinase assay.
A further test has as its target CaMK1 (human) (UniProt Q14012). The test is described as follows: radiometric filter-binding kinase assay.

Chain of PAK7 (human) (Q9P286 whole entry, looked up): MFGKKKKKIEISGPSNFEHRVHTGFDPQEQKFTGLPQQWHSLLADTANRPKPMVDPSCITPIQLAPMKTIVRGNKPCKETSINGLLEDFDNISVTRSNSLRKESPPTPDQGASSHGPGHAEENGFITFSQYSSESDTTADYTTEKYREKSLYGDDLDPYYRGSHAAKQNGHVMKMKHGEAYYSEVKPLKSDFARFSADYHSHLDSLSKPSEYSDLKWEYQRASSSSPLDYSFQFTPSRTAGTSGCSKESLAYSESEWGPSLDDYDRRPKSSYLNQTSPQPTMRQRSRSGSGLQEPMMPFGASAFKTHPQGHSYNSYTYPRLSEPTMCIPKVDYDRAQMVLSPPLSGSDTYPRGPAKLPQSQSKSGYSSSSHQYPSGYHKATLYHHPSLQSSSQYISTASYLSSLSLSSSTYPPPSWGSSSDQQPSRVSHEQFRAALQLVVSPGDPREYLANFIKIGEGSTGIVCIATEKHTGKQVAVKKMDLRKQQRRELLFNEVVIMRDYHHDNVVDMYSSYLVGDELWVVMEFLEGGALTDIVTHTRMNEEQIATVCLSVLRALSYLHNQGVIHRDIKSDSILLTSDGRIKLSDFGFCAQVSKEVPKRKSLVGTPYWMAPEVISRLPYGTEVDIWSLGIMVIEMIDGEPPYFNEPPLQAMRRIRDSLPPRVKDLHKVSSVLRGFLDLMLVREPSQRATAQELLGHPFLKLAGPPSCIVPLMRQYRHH
Chain of KIT (human) (P10721 whole entry, looked up): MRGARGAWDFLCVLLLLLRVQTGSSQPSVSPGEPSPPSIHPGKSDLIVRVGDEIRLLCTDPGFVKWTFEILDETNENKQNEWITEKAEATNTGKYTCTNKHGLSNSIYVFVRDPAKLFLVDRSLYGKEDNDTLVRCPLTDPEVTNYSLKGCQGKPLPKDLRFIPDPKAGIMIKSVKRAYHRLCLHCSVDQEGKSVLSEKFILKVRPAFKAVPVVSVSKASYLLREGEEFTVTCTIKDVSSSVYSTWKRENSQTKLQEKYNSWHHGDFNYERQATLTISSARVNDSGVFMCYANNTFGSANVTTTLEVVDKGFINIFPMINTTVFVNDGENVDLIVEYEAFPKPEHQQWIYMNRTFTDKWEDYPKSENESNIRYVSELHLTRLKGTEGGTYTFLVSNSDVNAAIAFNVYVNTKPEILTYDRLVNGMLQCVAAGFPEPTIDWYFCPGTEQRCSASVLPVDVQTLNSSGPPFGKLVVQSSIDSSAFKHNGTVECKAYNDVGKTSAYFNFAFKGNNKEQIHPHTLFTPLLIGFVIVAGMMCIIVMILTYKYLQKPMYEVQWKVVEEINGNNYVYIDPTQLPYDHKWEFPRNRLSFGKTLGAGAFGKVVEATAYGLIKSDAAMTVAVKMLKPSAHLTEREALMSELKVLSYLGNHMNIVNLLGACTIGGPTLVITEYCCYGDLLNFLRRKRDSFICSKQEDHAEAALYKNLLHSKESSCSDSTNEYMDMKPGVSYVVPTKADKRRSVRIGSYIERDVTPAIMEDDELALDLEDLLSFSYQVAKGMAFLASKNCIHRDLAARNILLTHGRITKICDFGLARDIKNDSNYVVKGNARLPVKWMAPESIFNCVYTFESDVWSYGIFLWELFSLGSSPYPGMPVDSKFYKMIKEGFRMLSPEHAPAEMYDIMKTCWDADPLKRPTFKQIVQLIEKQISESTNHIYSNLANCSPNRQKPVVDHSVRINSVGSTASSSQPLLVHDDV
Chain of CDKL3 (human) (Q8IVW4 whole entry, looked up): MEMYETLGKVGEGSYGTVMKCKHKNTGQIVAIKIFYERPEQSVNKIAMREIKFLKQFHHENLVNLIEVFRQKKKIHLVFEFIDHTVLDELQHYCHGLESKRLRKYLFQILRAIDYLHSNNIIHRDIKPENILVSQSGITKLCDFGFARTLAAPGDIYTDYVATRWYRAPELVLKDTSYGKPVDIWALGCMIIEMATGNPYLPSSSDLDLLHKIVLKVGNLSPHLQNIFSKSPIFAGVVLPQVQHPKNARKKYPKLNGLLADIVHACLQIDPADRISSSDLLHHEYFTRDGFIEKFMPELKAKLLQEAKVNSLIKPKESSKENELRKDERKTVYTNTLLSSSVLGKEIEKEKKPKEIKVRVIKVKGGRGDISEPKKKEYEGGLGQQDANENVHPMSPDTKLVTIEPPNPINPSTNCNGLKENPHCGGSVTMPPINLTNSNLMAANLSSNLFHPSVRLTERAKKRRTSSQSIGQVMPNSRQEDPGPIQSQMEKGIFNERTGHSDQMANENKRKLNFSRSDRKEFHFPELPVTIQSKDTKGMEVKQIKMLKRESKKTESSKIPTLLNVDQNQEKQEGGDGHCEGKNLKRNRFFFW
Chain of GSK3B (human) (P49841 whole entry, looked up): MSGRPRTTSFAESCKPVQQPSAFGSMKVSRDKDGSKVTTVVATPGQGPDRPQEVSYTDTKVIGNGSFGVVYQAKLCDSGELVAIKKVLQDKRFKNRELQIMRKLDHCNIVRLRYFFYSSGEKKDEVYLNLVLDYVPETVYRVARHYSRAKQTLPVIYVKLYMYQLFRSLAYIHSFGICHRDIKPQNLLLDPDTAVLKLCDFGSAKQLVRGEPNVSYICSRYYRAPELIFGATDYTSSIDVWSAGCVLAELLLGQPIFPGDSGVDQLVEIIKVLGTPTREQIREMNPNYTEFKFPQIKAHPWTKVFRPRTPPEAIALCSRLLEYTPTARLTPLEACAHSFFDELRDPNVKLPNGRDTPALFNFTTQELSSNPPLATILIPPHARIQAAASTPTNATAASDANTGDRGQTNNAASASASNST
Chain of RET (human), P07949 [V804M] (P07949 whole entry V804M, looked up): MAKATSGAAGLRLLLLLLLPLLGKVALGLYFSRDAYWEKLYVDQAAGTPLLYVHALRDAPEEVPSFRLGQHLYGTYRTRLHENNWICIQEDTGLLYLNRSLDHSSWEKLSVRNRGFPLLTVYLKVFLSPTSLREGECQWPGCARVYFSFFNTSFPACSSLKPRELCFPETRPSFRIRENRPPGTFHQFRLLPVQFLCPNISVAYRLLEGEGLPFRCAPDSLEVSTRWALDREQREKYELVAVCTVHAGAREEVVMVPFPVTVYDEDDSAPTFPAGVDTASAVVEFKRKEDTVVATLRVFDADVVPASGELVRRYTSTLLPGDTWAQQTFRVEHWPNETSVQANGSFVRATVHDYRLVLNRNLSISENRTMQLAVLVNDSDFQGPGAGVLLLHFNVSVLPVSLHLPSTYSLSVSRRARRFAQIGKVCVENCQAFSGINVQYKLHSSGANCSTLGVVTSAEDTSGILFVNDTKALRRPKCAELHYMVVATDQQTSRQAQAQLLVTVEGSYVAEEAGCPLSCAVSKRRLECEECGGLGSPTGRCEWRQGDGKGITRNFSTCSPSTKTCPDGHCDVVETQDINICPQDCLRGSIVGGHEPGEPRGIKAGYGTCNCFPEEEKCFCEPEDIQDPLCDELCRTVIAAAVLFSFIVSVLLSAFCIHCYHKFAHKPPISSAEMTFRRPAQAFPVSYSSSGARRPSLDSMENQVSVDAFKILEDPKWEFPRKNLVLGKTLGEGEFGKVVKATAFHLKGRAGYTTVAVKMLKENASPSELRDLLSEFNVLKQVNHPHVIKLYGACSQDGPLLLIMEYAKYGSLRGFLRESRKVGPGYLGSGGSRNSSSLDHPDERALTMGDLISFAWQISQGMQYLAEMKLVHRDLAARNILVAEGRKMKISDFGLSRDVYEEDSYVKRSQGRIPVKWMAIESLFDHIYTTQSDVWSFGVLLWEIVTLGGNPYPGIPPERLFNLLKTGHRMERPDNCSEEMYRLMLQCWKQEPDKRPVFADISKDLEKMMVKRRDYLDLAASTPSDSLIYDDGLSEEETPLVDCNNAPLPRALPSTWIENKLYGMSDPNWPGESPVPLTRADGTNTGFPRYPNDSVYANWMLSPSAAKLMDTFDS
Chain of MAP3K7 (human) (O43318 whole entry, looked up): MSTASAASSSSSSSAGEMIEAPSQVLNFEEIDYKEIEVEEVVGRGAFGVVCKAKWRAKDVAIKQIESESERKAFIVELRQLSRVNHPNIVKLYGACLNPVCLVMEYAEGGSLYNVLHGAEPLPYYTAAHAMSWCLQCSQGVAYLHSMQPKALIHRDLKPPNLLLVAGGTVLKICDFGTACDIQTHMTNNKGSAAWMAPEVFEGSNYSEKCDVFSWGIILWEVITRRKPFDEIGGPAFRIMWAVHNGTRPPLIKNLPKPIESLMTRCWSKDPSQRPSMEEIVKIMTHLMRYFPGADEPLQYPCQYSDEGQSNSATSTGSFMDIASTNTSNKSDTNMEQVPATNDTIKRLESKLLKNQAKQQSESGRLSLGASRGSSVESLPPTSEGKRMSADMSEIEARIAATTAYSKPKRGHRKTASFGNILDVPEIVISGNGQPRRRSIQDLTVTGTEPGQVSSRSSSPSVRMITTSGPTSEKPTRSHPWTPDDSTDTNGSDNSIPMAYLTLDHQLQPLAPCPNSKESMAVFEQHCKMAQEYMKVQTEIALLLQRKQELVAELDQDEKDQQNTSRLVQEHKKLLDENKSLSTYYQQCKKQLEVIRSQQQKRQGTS
Chain of MAPK8 (human) (P45983 whole entry, looked up): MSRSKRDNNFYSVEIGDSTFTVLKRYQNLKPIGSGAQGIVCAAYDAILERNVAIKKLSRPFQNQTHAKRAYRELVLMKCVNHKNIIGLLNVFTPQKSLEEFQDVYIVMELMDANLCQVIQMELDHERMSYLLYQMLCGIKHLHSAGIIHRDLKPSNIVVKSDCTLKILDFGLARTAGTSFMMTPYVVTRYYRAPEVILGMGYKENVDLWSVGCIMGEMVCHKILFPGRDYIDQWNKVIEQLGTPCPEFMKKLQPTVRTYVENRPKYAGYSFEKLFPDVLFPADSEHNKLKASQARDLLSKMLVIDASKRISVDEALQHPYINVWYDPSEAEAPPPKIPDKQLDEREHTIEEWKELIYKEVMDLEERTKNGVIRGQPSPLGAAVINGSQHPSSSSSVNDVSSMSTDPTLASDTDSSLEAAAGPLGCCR

Consider `CN(C)C/C=C/C(=O)Nc1cccc(C(=O)Nc2ccc(Nc3nccc(-c4cccnc4)n3)cc2)c1`, for which the half-maximal inhibitory concentration (IC50) at RIPK2 (human) is 729 nM; at MAPK15 (human), 183 nM; on CLK2 (human), 299 nM; at NUAK1 (human), 144 nM; on GCK (human), 20500 nM; on MAP3K7 (human), 833 nM. Moreover, the 50% inhibitory concentration (IC50) on CSNK2A1 (human) is 506 nM; at GSK3B (human), 933 nM; on IRAK1 (human) [1], 175 nM; on MAPK8 (human), 41 nM; at HIPK1 (human) [2] it was 7610 nM; at JAK2 JH1 JH2 (human), 2510 nM. In addition, the IC50 at KIT (human) turned out to be 2410 nM; against IRAK1 (human) [5] it was 14.1 nM; on HIPK1 (human) [6], 5010 nM. Further, the kinase still bound, per cent of control in test [3] (compound 1.0 µM) was determined as 100%; in [4] (compound 1.0 µM), 100%; at CDKL3 (human) (compound 1.0 µM), 41%; on PAK7 (human) (compound 1.0 µM) it was 75%.

In the case of `CN(C)C/C=C/C(=O)Nc1cccc(C(=O)Nc2ccc(Nc3nccc(-c4c(-c5ccccc5)nn5ccccc45)n3)cc2)c1`, the half-maximal inhibitory concentration (IC50) on RIPK2 (human) was found to be 42 nM; at MAPK9 (human), 23 nM; on FLT1 (human), 18 nM; on ERBB4 (human) it was 28.9 nM; on MAP3K7 (human), 351 nM; at MAP3K9 (human), 45 nM. Further, the IC50 at EPHB4 (human) came out at 121 nM; on MAPK10 (human) it was 8.4 nM; on GSK3B (human), 32 nM; on MAPK8 (human), 39 nM; at EPHB2 (human) it was 138 nM; against CSNK1E (human), 82.9 nM. In addition, the concentration for half-maximal inhibition (IC50) at KIT (human) was 1320 nM; on PDGFRB (human) it was 1030 nM; against CSNK1G2 (human) it was 161 nM; against DDR1 (human) it was 56.1 nM. Further, the kinase still bound, per cent of control was 100% in [3] (compound 1.0 µM), 100% in test [4] (compound 1.0 µM), 100% at CDKL3 (human) (compound 1.0 µM) and 92% at PAK7 (human) (compound 1.0 µM).

For the compound `Cc1cc(NC(=O)c2cccc(NC(=O)/C=C/CN(C)C)c2)ccc1Nc1nccc(-c2cccnc2)n1`, the IC50 was 1280 nM on YES1 (human); 7720 nM at MAP3K7 (human); 7500 nM against PRKX (human); > 10000 nM on KIT (human); > 10000 nM on PDGFRB (human); 8970 nM on HIPK4 (human). The IC50 at MKNK2 (human) was 238 nM; against CSF1R (human), 287 nM. Further, the kinase still bound, per cent of control was determined as 100% in test [3] (compound 1.0 µM), 100% in [4] (compound 1.0 µM), 100% on CDKL3 (human) (compound 1.0 µM) and 88% at PAK7 (human) (compound 1.0 µM).

`CN(C)C/C=C/C(=O)Nc1cccc(C(=O)Nc2ccc(Nc3nccc(/C(C#N)=C4\Nc5ccccc5S4)n3)cc2)c1`: the IC50 in test [7] came to 970 nM; on MAPK9 (human) it was 490 nM; at FLT1 (human), 134 nM; at CaMK1 (human), 900 nM; at MAP3K7 (human) it was 866 nM; at MAP3K9 (human) it was 104 nM. The half-maximal inhibitory concentration (IC50) at MAPK10 (human) is 354 nM; at GSK3B (human), 84 nM; at MAPK8 (human), 327 nM; against AKT1 (human), > 370 nM; against SLK (human), 884 nM; against AKT3 (human), > 370 nM. Further, the kinase still bound, per cent of control was 100% in test [3] (compound 1.0 µM), 100% in test [4] (compound 1.0 µM), 100% on CDKL3 (human) (compound 1.0 µM) and 69% at PAK7 (human) (compound 1.0 µM).

Turning to `Cc1ccc(NC(=O)c2ccc(NC(=O)/C=C/CN(C)C)cc2)cc1Nc1nccc(-c2cccnc2)n1`, the kinase still bound, per cent of control in test [3] (compound 10.0 µM) was 94%; in test [4] (compound 10.0 µM), 100%; at CDKL3 (human) (compound 10.0 µM), 100%; at PAK7 (human) (compound 10.0 µM) it was 72%.

These data come from the kinase profiling compilation of Christmann-Franck et al. (2016).
